# System: human whole skin
# Assay: Whole skin silver staining study, Franz type diffusion cell (Example 2)
# Settings: dressing hydrated with 200 μl saline, 24 hours, 32° C., FIG. 1
# Experimental: Skin staining studies were carried out using an adaptation of a Franz type horizontal glass diffusion cell as described in Dugard et al, 1984. Whole human skin and wound tissue samples (1 cm^2 discs) were punched out using an Osborne arch punch and placed epidermal side uppermost on the receptor chamber. The donor chamber was then gently placed on top of the receptor chamber. The whole cell was clamped together and placed into a water bath maintained at 32° C.±1° C. The underlying whole skin was bathed in saline.
# Individual silver-containing wound dressings (0.64 1 cm^2) were cut out and placed onto the centre of a piece of human whole skin. 200 μl of saline was placed into the donor chamber to hydrate each dressing to mimic a moderately exuding wound. Appoximately 5-10 mg of Flamazine cream was placed onto the skin and gently smoothed over the exposed skin surface by means of a small spatula. […] Each cell was left for 24 hours and images were taken using a Polaroid digital microscope camera.
structure (smiles),measurement,value
O=[N+]([O-])[O-].[Ag+] [silver nitrate],silver staining of skin,significant silver staining
